In publication PMC7138307 (PLoS ONE, 2020):

Tests used:
TTBK1 = molecular target: T1, TTBK1 (Homo sapiens, UniProt Q5TCY1); test: TTBK biochemical (recombinant kinase) assay
T1 construct: TTBK1 1-479aa; SignalChem Catalog # T17-11G-05; purchased SignalChem T17-11G-05
Protocol: Final Kinase Activity conditions; 400 pM TTBK1 at ambient temperature in 25 mM Hepes, pH 7.5, 50 mM NaCl, 10 mM MgCl2, 0.02% Brij-35, 1 mM DTT, 10 uM ATP and 100 nM Ulight TOPO IIa peptide substrate ([sequence]). After a 2 hour incubation at 23 °C, the kinase reaction was quenched with 30 ul of 60 mM EDTA, and 2 nM Eu-anti- FDEKpTDDEDF antibody in 1X Lance Delfia Detection Buffer and incubated for one hour prior to detection with the EnVision Multilabel Reader (PerkinElmer). […] For compound inhibition, 15 ul of 800 pM TTBK1 was preincubated for 30 minutes with 300 nl of 100x compound stock in DMSO before initiation of the activity by addition of 15 ul of 2x Substrate Stock (200 nM peptide and 20 uM ATP).

[1] = tested on: tau phosphorylation following TTBK1 overexpression in HEK293 cells; test: Western blot of tau phosphorylation in HEK293 cells overexpressing TTBK1 and human Tau (2N4R) plus or minus staurosporine; type: cell-based; settings: 10μM, one hour
Text: However, it is unclear whether TTBK1 directly phosphorylates tau at these sites or whether it enhances the phosphorylation of tau through the activation of other kinases. […]; Fig 1A). […]. TTBK1 overexpression led to the increase in tau phosphorylation at several sites; some previously identified including S422, AT8 ([…]) and S198 as well as additional novel sites like AT180 (Thr231), PHF-13 (S396), S214, and S356 (Fig 1B and 1C). […].
Fig 1 TTBK1 overexpression leads to direct and indirect phosphorylation of Tau at disease-relevant sites. (A) Phylogenetic tree of the human kinome illustrating the biochemical IC50 for Staurosporine against various kinases (data compiled from Davis et al., 2011 in addition to internal data on the affinity of Staurosporine for TTBK1/TTBK2). […] TTBK1 overexpression caused a dramatic increase in the overall level of tau phosphorylation. […]. HEK293 cells obtained from American Type Culture Collection (ATCC, Manassas, VA) were cultured in Dulbecco's modified Eagle's medium (DMEM) supplemented with 10% fetal bovine serum (FBS), 10 units/ml penicillin, and 10μg/ml streptomycin (all reagents were purchased from Gibco, Waltham, MA). Cell cultures were maintained in a humidified 5% (v/v) CO2/air environment at 37°C. When the cells reached 50–80% confluence, they were transfected with a complex consisting of a 3:1 ratio of FuGENE 6 Transfection Reagent (Promega, Madison, WI) and plasmid DNA. Plasmid DNA was balanced out across reactions using an empty plasmid so that the same amount of DNA was added per well. This transfection complex was prepared following the manufacturers protocol and added directly to the cell media for 24 or 48 hours prior to lysis.
Samples were lysed in Pierce RIPA lysis and extraction buffer (Thermo Fisher Scientific, Waltham, MA) supplemented with 1% Halt protease and phosphatase inhibitor cocktail (Thermo Fisher Scientific, Waltham, MA) and centrifuged at 14000 x g for 20 min at 4°C to clear the lysate. Protein concentrations were determined using the Direct Detect Infrared Spectrometer (EMD Millipore Corp., Burlington, MA) and 10μg of each sample was denatured in 6X SDS sample buffer (Boston Bioproducts, Ashland, MA) for 7 minutes at 90°C. Proteins were loaded into a Criterion 7.5% tris-glycine gel (Bio-Rad, Hercules, CA) and separated by SDS-PAGE at 120V for 120 minutes. The gel was transferred to an IBlot2 nitrocellulose membrane (Invitrogen, Carlsbad, CA), blocked with TBST blocking buffer (Li-cor Biosciences, Lincoln, NE) for 1 hour, and washed three times with TBST. The membrane was probed with primary antibodies (1:1000 dilution) in antibody dilution buffer (1:1 TBST blocking buffer and 1X TBST) overnight at 4°C. The following antibodies were used for immunoblotting: TTBK1 (Cat# PA5-20686, Invitrogen, Carlsbad, CA), Tau-5 (Cat# ab80579, Abcam, Cambridge, UK), phospho-Tau S422 (Cat# ab79415, Abcam, Cambridge, UK), S198 (Cat# ab79540, Abcam, Cambridge, UK), AT8 S202/T205 (Cat# MN1020, Invitrogen, Carlsbad, CA), S214 (Cat# ab170892, Abcam, Cambridge, UK), AT180 T231 (Cat# MN1040, Invitrogen, Carlsbad, CA), S262 (Cat# ab131354, Abcam, Cambridge, UK), S356 (Cat# ab75603, Abcam, Cambridge, UK), S396 (Cat# ab109390, Abcam, Cambridge, UK), GAPDH (Cat# 5174S, Cell Signaling Technology, Danvers, MA), and β-actin (Cat# 926–42212, Li-cor Biosciences, Lincoln, NE). The blot was then washed in triplicate with TBST and incubated for 1 hour with secondary antibody (1:10,000 dilution of IRDye 800 anti-mouse IgG and IRDye 680 anti-rabbit IgG, Li-cor Biosciences, Lincoln, NE) in antibody dilution buffer. After a final triplicate wash with TBST, the blot was visualized using the Odyssey CLx imaging system (Li-cor Biosciences, Lincoln, NE).

T1 sequence (Q5TCY1 1-479): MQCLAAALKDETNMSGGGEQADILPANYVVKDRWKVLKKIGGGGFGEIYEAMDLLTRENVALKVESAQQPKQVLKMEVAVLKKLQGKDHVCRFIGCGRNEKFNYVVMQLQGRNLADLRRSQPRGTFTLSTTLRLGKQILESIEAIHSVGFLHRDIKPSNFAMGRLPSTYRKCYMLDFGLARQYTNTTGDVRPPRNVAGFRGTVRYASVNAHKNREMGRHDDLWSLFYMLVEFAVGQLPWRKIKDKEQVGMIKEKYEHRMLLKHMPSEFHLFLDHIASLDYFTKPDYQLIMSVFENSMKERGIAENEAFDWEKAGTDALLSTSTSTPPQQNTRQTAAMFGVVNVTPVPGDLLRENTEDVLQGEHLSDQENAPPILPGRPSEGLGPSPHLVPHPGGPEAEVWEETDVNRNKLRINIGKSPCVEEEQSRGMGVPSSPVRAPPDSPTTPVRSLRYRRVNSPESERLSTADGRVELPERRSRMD

**Q.** How did the IC50 (TTBK1) turn out when `CN[C@@H]1C[C@H]2O[C@@](C)([C@@H]1OC)n1c3ccccc3c3c4c(c5c6ccccc6n2c5c31)C(=O)NC4` [Staurosporine, staurosporine] was run?
**A.** > 30 µM

**Q.** And the “increase in tau phosphorylation at AT8 following TTBK1 overexpression” value [1]?
**A.** not inhibited

**Q.** What about the “increase in tau phosphorylation at S198 following TTBK1 overexpression” value [1] of the same molecule?
**A.** not inhibited

**Q.** And the “increase in tau phosphorylation at S422 following TTBK1 overexpression” value [1]?
**A.** not inhibited

**Q.** What about the “phosphorylation of tau at AT180” value [1] of the same molecule?
**A.** reduced

**Q.** What about the “phosphorylation of tau at S214” value [1] of the same molecule?
**A.** reduced

**Q.** What about the “phosphorylation of tau at S356” value [1] of the same molecule?
**A.** reduced

**Q.** What about the “phosphorylation of tau at S396” value [1] of the same molecule?
**A.** reduced
